From PubChem BioAssay (NCI)
Several values for one entry are separate records, joined by “and”; a condition that tells them apart may be missing. Identical values can stand only once.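 Each compound was tested at five concentrations against cells in 96-well plates for 48 hours. GI50: concentration for 50% inhibition of growth. At the TGI there is no net growth.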

Legend:
Assay in all cases: growth of human tumour cells (NCI), 48 h
HCT-116 colon = system: HCT-116 colon
SF-539 CNS = system: SF-539 CNS
RPMI-8226 leukemia = system: RPMI-8226 leukemia
HOP-62 NSCLC = system: HOP-62 NSCLC
U251 CNS = system: U251 CNS
SR leukemia = system: SR leukemia
ACHN renal = system: ACHN renal
SK-OV-3 ovarian = system: SK-OV-3 ovarian
NCI-H23 lung = system: NCI-H23 lung
BT-549 breast = system: BT-549 breast

| Structure (SMILES) | TGI (HCT-116 colon) | TGI (SF-539 CNS) | TGI (RPMI-8226 leukemia) | TGI (HOP-62 NSCLC) | TGI (U251 CNS) | TGI (SR leukemia) | TGI (ACHN renal) | TGI (SK-OV-3 ovarian) | TGI (NCI-H23 lung) | TGI (BT-549 breast) | GI50 (RPMI-8226 leukemia) | GI50 (HOP-62 NSCLC) | GI50 (U251 CNS) | GI50 (SR leukemia) | GI50 (SK-OV-3 ovarian) | GI50 (NCI-H23 lung) | GI50 (BT-549 breast) | GI50 (HCT-116 colon) | GI50 (SF-539 CNS) | GI50 (ACHN renal) |
| --- | --- | --- | --- | --- | --- | --- | --- | --- | --- | --- | --- | --- | --- | --- | --- | --- | --- | --- | --- | --- |
| O=C[C@@H](CO)O[C@H](C=O)n1cnc2c(=O)[nH]cnc21 | 1270 µM | 2230 µM | 633 µM | 630 µM | 2500 µM | 1210 µM | 2050 µM | 1630 µM | 1530 µM | 2370 µM | – | – | – | – | – | – | – | – | – | – |
| CCOC(=O)C1=C(C)NC(c2ccco2)=C(C#N)C1c1cccc([N+](=O)[O-])c1 (stereo unspecified) | 4.17 µM | 0.0128 µM | – | 17.2 µM | 0.059 µM | 17.5 µM | 45.7 µM | 70.9 µM | 0.0947 µM | 18 µM | 0.0658 µM | 0.0174 µM | 0.0134 µM | 0.0416 µM | 0.738 µM | 0.0251 µM | 0.153 µM | – | – | – |
| CC[C@H](C)[C@H](NC(=O)c1cccn1C)C(=O)N(C)[C@H](C[C@@H](OC(C)=O)c1nc(C(=O)N[C@@H](Cc2ccccc2)C[C@H](C)C(=O)OC)cs1)C(C)C | > 11.3 µM | 1.22 µM | > 18.8 µM | > 33.3 µM | > 33.3 µM | > 33.3 µM | > 33.3 µM | > 33.3 µM | > 33.3 µM | 2.48 µM | 0.129 µM | 0.32 µM | 0.24 µM | 0.0546 µM | 0.124 µM | 0.216 µM | 0.155 µM | 0.127 µM | 0.203 µM | 0.502 µM |
| CNC(=O)c1ccccc1Nc1nc(Nc2ccc3c(c2OC)CCC[C@H](N2CCN(CCO)CC2)C3)ncc1Cl | 4.24 µM and 3.95 µM | 5.31 µM and > 10 µM | 7.08 µM and > 10 µM | 16.8 µM and > 10 µM | 13.3 µM and > 10 µM | 1.96 µM and 2.32 µM | 11.3 µM and > 10 µM | 14.4 µM and 9.23 µM | 15 µM and > 10 µM | 16 µM and > 10 µM | 1.8 µM and 2.95 µM | 2.84 µM and 2.77 µM | 2.43 µM and 2.27 µM | 0.0449 µM and 0.128 µM | 2.98 µM and 2.47 µM | 2.5 µM and 1.21 µM | 3.84 µM and 3.43 µM | 1.3 µM and 1.05 µM | 1.95 µM and 4.38 µM | 1.16 µM and 1.43 µM |
| COc1ccc(S(=O)(=O)N(C(C)=O)c2ccccc2/C=C/c2cc[n+]([O-])cc2)cc1 | > 10 µM | 2.45 µM | > 10 µM | > 10 µM | > 10 µM | > 10 µM | > 10 µM | > 10 µM | > 10 µM | > 10 µM | 0.953 µM | 0.86 µM | 0.504 µM | 0.23 µM | 1.05 µM | 1.22 µM | 0.56 µM | 0.542 µM | 0.377 µM | 2.36 µM |
| COc1ccc2[nH]c(C(=O)OCc3ccc4c(Cl)cc(Cl)c(O)c4n3)cc2c1 | 1.65 µM | 2.5 µM | 3.86 µM | 2.8 µM | 2.94 µM | 3.7 µM | 2.26 µM | 17.7 µM | 3.37 µM | 2.56 µM | 0.803 µM | 1.33 µM | 1.55 µM | 0.38 µM | 4.06 µM | 1.57 µM | 1.21 µM | 0.436 µM | 1.25 µM | 1.08 µM |
| CCC1=C(CC2NCCc3ccccc32)CC2c3cc(OC)c(OC)cc3CCN2C1 (stereo unspecified) | 11.6 µM and 2.94 µM | 16.4 µM and 2.85 µM | 15.9 µM and 3.12 µM | 17.1 µM and 4.65 µM | 16.4 µM and 2.77 µM | 8.77 µM and 3.89 µM | 37.6 µM and 3.9 µM | 25.6 µM and 17.1 µM | 35.9 µM and 13.1 µM | 21.2 µM and 9.89 µM | 4.17 µM | 3.6 µM | 4.8 µM | 2.86 µM | 4.07 µM | 5.2 µM | 9.07 µM | 2.86 µM | 4.84 µM | 3.96 µM |
| CC(C)(C)OC(=O)Nc1ccc2c(c1)C(NC(=O)Nc1cccc(C#N)c1)CC(C)(C)O2 (stereo unspecified) | > 44.6 µM | 44.1 µM | > 81.9 µM | > 100 µM | > 58.2 µM | 30 µM | > 100 µM | > 100 µM | > 81.3 µM | 18 µM | 2.63 µM | 5 µM | 1.76 µM | 2.18 µM | 8.68 µM | 1.09 µM | 2.65 µM | 1.24 µM | 5.19 µM | 3.99 µM |
| COc1c(N2CCN(CN3C(=O)C(=Nc4ccc(S(=O)(=O)Nc5ncccn5)cc4)c4cc(Cl)ccc43)C(C)C2)c(F)cc2c(=O)c(C(=O)O)cn(C3CC3)c12 (stereo unspecified) | 21.7 µM | 40.9 µM | > 50 µM | > 50 µM | > 50 µM | > 50 µM | > 50 µM | > 50 µM | 18.4 µM | > 50 µM | 16.8 µM | 18.2 µM | 34.8 µM | 12.4 µM | 40 µM | 8.22 µM | 20.4 µM | 9.19 µM | 15.4 µM | 11.8 µM |
| CC/C(=C/c1ccc(OC)cc1OC)[N+](=O)[O-] | 3.23 µM | 4.73 µM | 7.19 µM | 7.14 µM | 16.2 µM | 17 µM | 4.63 µM | 30.4 µM | 20.1 µM | 15.3 µM | 2.31 µM | 2.38 µM | 4.93 µM | 2.61 µM | 16.7 µM | 4.51 µM | 4.15 µM | 1.65 µM | 2.27 µM | 2.14 µM |
| COc1cc(C(=O)c2cocc2C(=O)c2ccc3c(c2)OCO3)cc(OC)c1OC | 24.4 µM | 1.45 µM | 32.3 µM | 31.3 µM | 8.35 µM | > 56.2 µM | > 48.4 µM | 47.3 µM | 26.2 µM | 0.552 µM | – | – | – | – | – | – | – | – | – | – |
| COc1ccc2nc3cc(Cl)ccc3c(Nc3cc(CN4CCCC4)c(O)c(CN4CCCC4)c3)c2n1 | 5.83 µM | 3.88 µM | 5.7 µM | 4.91 µM | 11.5 µM | 3.14 µM | 10.3 µM | 15.5 µM | 3.88 µM | 5.66 µM | 2.1 µM | 1.38 µM | 2.21 µM | 0.902 µM | 2.92 µM | 1.72 µM | 2.46 µM | 1.04 µM | 1.89 µM | 1.69 µM |
| CN(C)CCCNc1nc2ccccc2c2[nH]c3ccccc3c12 | 1.67 µM | 1.9 µM | 1.95 µM | 3.77 µM | 2.59 µM | 50 µM | 2.24 µM | 6.11 µM | 1.64 µM | 5.35 µM | 0.811 µM | 0.497 µM | 0.679 µM | 0.616 µM | 1.49 µM | 0.752 µM | 1.86 µM | 0.222 µM | 0.654 µM | 0.703 µM |
